# Data reported in US20090281136A1, “PRASUGREL PHARMACEUTICAL FORMULATIONS” (priority 2008, published 2009).
# Test: Drug-excipient compatibility study (impurity formation on storage at 40° C. and 75% relative humidity)
# Format: physicochemical
# Description: Prasugrel hydrochloride and mixtures with excipients in the weight ratios stated below are mixed well and sifted through an ASTM #40 mesh sieve. The mixture is placed into open glass vials, stored at 40° C. and 75% relative humidity for four weeks, and samples are analyzed at intervals to evaluate the extent of impurity formation. Values for impurities in the table below are calculated as percent by weight of the original prasugrel content.
structure (smiles),measurement,setting,value
"CC(=O)Oc1cc2c(s1)CCN(C(C(=O)C1CC1)c1ccccc1F)C2 (stereo not drawn) [Prasugrel, 5-[2-cyclopropyl-1-(2-fluorophenyl)-2-oxoethyl]-4,5,6,7-tetrahydrothieno[3,2-c]pyridin-2-yl acetate]","Total Impurities, 1 Week","1 week at 40° C. and 75% relative humidity, open glass vials",0.6547 percent by weight of the original prasugrel content
same,"Total Impurities, 2 Weeks","2 weeks at 40° C. and 75% relative humidity, open glass vials",0.6982 percent by weight of the original prasugrel content
same,"Total Impurities, 3 Weeks","3 weeks at 40° C. and 75% relative humidity, open glass vials",0.7488 percent by weight of the original prasugrel content
same,"Total Impurities, 4 Weeks","4 weeks at 40° C. and 75% relative humidity, open glass vials",0.8998 percent by weight of the original prasugrel content
same,"Total Impurities, Initial","Initial, open glass vials",0.6301 percent by weight of the original prasugrel content
same,Stability in the presence of the excipients studied,accelerated stability testing conditions,acceptable stability
